From paper PMC10787398, “Simultaneous determination of colistin sulfate and tigecycline in human plasma by liquid chromatography-tandem mass spectrometry method” (BMC Chemistry, 2024)
Counter-ions that a name gives are not always drawn. Where a SMILES comes first, the peptide text is derived from it. Bridges are numbered along the chain shown (N, C = ends). [ ]: non-standard residue; d: D form. The star is where a group is joined. X1 = CC[C@H](C)CCCCC(=O)*; Dab = NCC[C@H](N)C(=O)O

Columns and labels:
[1] = Plasma trough and peak concentrations in patients on intravenous polymyxin and tigecycline (HPLC-MS/MS); settings: human, in vivo, iv, iv
Source text: Plasma samples were collected from patients receiving simultaneous intravenous polymyxin and tigecycline treatment. Inclusion criteria: ① Patients receiving simultaneous intravenous polymyxin and tigecycline treatment; ② Age ≥ 18 years; ③ Patients who consent to the monitoring of polymyxin and tigecycline blood drug concentrations during treatment. Exclusion criteria: ① Pregnant or lactating women; ② Treatment duration < 3 days; ③ Local administration; ④ Blood dialysis treatment. Once the blood drug concentration reached a steady state, 3 ml of venous blood was collected before and 30 min after the seventh administration to measure the peak and trough concentrations. This study was conducted with approval from the Ethics Committee of Second Hospital of Hebei Medical University (2020-R551). This study was conducted in accordance with the declaration of Helsinki.
Two hundred microliters of the plasma sample were adopted, with 20 µL of the internal standard added, and it was vortexed for 20 s. Two hundred microliters of 5% trichloroacetic acid was added for acidification and vortexed for 10 s. Two hundred microliters of methanol was added for extraction, vortexed for 2 min, and centrifuged at 10,900 r/min for 5 min. Two hundred microliters of the supernatant were aspirated into the injection bottle, and 10 µL of the sample was injected for the HPLC–MS/MS analysis.
All patients received an initial dose of 100 mg and a maintenance dose of 50 mg q12h for tigecycline. Three milliliters of venous blood were collected before and after the seventh administration to measure the peak and trough concentrations of the drugs.

[2] = within 8 h after administration; no reference given; cited from earlier work
Source text: The PK process of the drug in the body is often affected in patients with serious diseases accompanied by microcirculation disorders, hypoproteinemia, liver and kidney insufficiency, and other special pathophysiological states. Large fluctuations in plasma drug concentrations are commonly observed in these cases. TDM can aid in the optimization of administration dosage, individualized dosing, and anti-infective efficacy. Since colistin sulfate has not undergone modern drug development procedures, the current pharmacokinetic data remain unclear, and the plasma concentration is closely correlate ...

[3] = Stability of analytes in spiked plasma samples under storage conditions; assay type: in vitro ADME, human; settings: for Measured value, Stored at -80℃ for 7 days / Measured value, Automatic sampler 15℃ for 24 h / Measured value, Freeze-thaw for 3 cycles / Measured value, At 4℃ for 12 h / Measured value, At room temperature for 6 h: HPLC-MS/MS, n = 5; for Measured value, Automatic sampler 15℃ for 24 h: automatic sampler 15 ℃ 24 h; for Measured value, Freeze-thaw for 3 cycles: frozen at -80 °C and thawed at room temperature; for Measured value, At 4℃ for 12 h: refrigerator 4 °C 12 h
Procedure: Plasma samples with low, medium, and high mass concentrations were prepared (the mass concentrations of colistin sulfate were 0.1, 1, and 8 µg/mL, respectively, and those of tigecycline were 0.05, 0.5, and 4 µg/mL, respectively). Five replicates of each concentration were prepared and placed in a refrigerator at 4 °C for 12 h, at room temperature for 6 h, and in an automatic sampler at 15 ℃ for 24 h. The samples were, on three occasions, frozen at − 80 °C and thawed at room temperature, and then placed in a − 80 °C refrigerator for seven days. The concentrations and RSDs of colistin sulfate and tigecycline in the plasma samples were calculated based on the accompanying standard curve of the day to evaluate their stabilities.

[4] = plasma QC high, nominal colistin sulfate 8 µg/mL, tigecycline 4 µg/mL
[5] = plasma QC low, nominal colistin sulfate 0.1 µg/mL, tigecycline 0.05 µg/mL
[6] = plasma QC medium, nominal colistin sulfate 1 µg/mL, tigecycline 0.5 µg/mL

In the case of CC[C@H](C)CCCCC(=O)N[C@@H](CCN)C(=O)N[C@H](C(=O)N[C@@H](CCN)C(=O)N[C@H]1CCNC(=O)[C@H]([C@@H](C)O)NC(=O)[C@H](CCN)NC(=O)[C@H](CCN)NC(=O)[C@H](CC(C)C)NC(=O)[C@@H](CC(C)C)NC(=O)[C@H](CCN)NC1=O)[C@@H](C)O [Colistin sulfate, colistin sulfate] (X1-[Dab]T[Dab][Dab][Dab][dL]L[Dab][Dab]T; lactam 4-C), the level at 0.5 h ([1]; both, peak concentration of colistin sulfate, range over patients, 12 adult patients, steady state, after 7th administration, plasma, HPLC-MS/MS) is given as 890 to 4560 ng/mL, the Cmax ([1]; female, 500000 IU) is given as 890 ng/mL and the “administered dose excreted in the urine” value [2] is given as 40%. For the same compound, the “Measured value, Stored at -80℃ for 7 days” value (“Measured value, Stored” for short) ([3]; plasma QC high, nominal colistin sulfate 8 µg/mL, tigecycline 4 µg/mL, -80 °C 7 days) was 8.30 ± 0.32 µg/mL, the “Measured value, Automatic sampler 15℃ for 24 h” value (“Measured value … for 24 h” for short) [3, 4] was 8.17 ± 0.19 µg/mL and the “Measured value, Freeze-thaw for 3 cycles” value [3, 4] was 8.70 ± 0.54 µg/mL. The “Measured value, At 4℃ for 12 h” value [3, 4] was 8.23 ± 0.61 µg/mL, the “Measured value, At room temperature for 6 h” value (“Measured value … for 6 h” below) ([3]; plasma QC high, nominal colistin sulfate 8 µg/mL, tigecycline 4 µg/mL, room temperature 6 h) was 8.26 ± 0.30 µg/mL and the “Measured value, Stored” value ([3]; plasma QC low, nominal colistin sulfate 0.1 µg/mL, tigecycline 0.05 µg/mL, -80 °C 7 days) was 0.10 ± 0.00 µg/mL. For the same compound, the “Measured value … for 24 h” value [3, 5] was 0.10 ± 0.00 µg/mL, the “Measured value, Freeze-thaw for 3 cycles” value [3, 5] was 0.09 ± 0.00 µg/mL and the “Measured value, At 4℃ for 12 h” value [3, 5] was 0.09 ± 0.01 µg/mL. For the same compound, the “Measured value … for 6 h” value ([3]; plasma QC low, nominal colistin sulfate 0.1 µg/mL, tigecycline 0.05 µg/mL, room temperature 6 h) was 0.10 ± 0.00 µg/mL, the “Measured value, Stored” value ([3]; plasma QC medium, nominal colistin sulfate 1 µg/mL, tigecycline 0.5 µg/mL, -80 °C 7 days) was 0.98 ± 0.09 µg/mL and the “Measured value … for 24 h” value [3, 6] was 0.93 ± 0.01 µg/mL. For the same compound, the “Measured value, Freeze-thaw for 3 cycles” value [3, 6] was 1.04 ± 0.04 µg/mL, the “Measured value, At 4℃ for 12 h” value [3, 6] was 0.93 ± 0.04 µg/mL and the “Measured value … for 6 h” value ([3]; plasma QC medium, nominal colistin sulfate 1 µg/mL, tigecycline 0.5 µg/mL, room temperature 6 h) was 1.00 ± 0.05 µg/mL. For the same compound, the “stability under the above conditions” value ([3]; plasma samples, 4 °C 12 h, room temperature 6 h, autosampler 15 ℃ 24 h, 3 freeze-thaw cycles, -80 °C 7 days) was “good stability”.
